From patent publication US12729381B2, “Methods and compositions for inactivating interleukin-2-inducible t-cell kinase (ITK)” (priority 2020, dated 2026)
Non-standard residues stand in square brackets, D forms with d. No end group written: not given here. *: point of attachment. FITC = O=C1OC2(c3ccc(O)cc3Oc3cc(O)ccc32)c2ccc(NC(=S)*)cc21; pY = N[C@@H](Cc1ccc(OP(=O)(O)O)cc1)C(=O)O

Columns and labels:
Tregs (CD4+CD25+FoxP3+) = test: Treg differentiation in total mouse T cells stimulated with anti-CD3; assay type: cell-based; settings: anti-CD3, 5 to 24 hours; compared to vehicle alone or nonspecific peptide
Excerpt: To ensure that the peptide easily enters cells and that its cellular localization can be monitored, a C-terminal TAT peptide (GRKKRRQRRRPQ) (SEQ ID NO:3) and an N-terminal fluorescent FITC dye were incorporated, respectively, and named it SLP76pTYR peptide ([…]). SLP76pTYR peptide (FITC Dye ^132NEEEEAPVEDDADpYEPPPSNDEEA^155-TAT) (SEQ ID NO:5) and non-specific control peptide (FITC Dye-[…]-TAT) (SEQ ID NO:6) were synthesized by Genscript Inc (Piscataway, NJ). These peptides were initially dissolved in 3% ammonia water to a final concentration of 10 mg/mL and then further diluted into PBS to a final concentration of 0.1 mg/mL. Fresh splenocytes were isolated from WT mice, and T cells were generated from splenocytes as previously described (Baker et al., 2001). […] Cells were examined for the presence of FITC by microscopy using a Leica DMi8 microscope equipped with an infinity total internal reflection fluorescence (TIRF) and DIC modules, a Lumencor SOLA SE II light box, a 150 mW 488 (GFP) laser and filter cube, a 100x/1.47 NA objective, and an Andor iXon Life 897 EMCCD camera. […]

human T cells = test: Intracellular IFN-γ and TNF-α production by primary human T cells from PBMCs (flow cytometry); assay type: cell-based; settings: anti-CD3/anti-CD28 with Brefeldin A, 6 hours; vs vehicle alone
Description: ITK deficiency is known to enhance the development of regulatory T cells (Tregs) (Elmore et al., 2020, Owen et al., 2019) so the peptide inhibitor was tested to determine whether inhibition of the ITK: SLP76Y145 interactions using SLP76pTYR would induce Tregs. First, the frequency of Tregs was examined by expression of CD4^+ and FoxP3^+ (FIG. 18A). Next, total mouse T cells were stimulated with anti-CD3 (Sugie et al., 2004) in the presence of either SLP76pTYR, nonspecific peptide, or vehicle alone for 5 to 24 hours, and cells were harvested and examined for the presence of Tregs (CD4^+CD25^+FoxP3^+). […] Next, the effects of SLP76pTYR peptide on human PBMC samples from healthy human patients was investigated. T cells from these patients were stimulated with anti-CD3 (OKT3) (Karimi et al., 2005) for 5 minutes in the presence of SLP76pTYR or vehicle alone. […]
More specifically, FIGS. 18A-18F depict Novel peptide SLP76pTYR specifically targets SLP76: ITK signaling and enhances Treg cell development. […] (FIG. 18C) Quantification of three experiments as in (A) (FIG. 18D) Cell lysates were obtained from mouse T cells stimulated with anti-CD3 and anti-CD28 in the presence of SLP76pTYR, or vehicle alone. […] Intracellular IFN-γ and TNF-α expression by CD8^+ and CD4+ T cells was determined by flow cytometry. […]

[1] = tested on: T cells from GVHD patient blood samples; test: T cells from GVHD patient blood samples treated with SLP76pTYR; assay type: cell-based, human

FITC Dye ^132NEEEEAPVEDDADpYEPPPSNDEEA^155-TAT ({FITC}-NEEEEAPVEDDAD[pY]EPPPSNDEEAGRKKRRQRRRPQ) [SLP76pTYR]
differentiation of Treg cells (Tregs (CD4+CD25+FoxP3+)): Significantly enhanced differentiation of Treg cells
IFN-γ production (human T cells): significantly reduced IFN-γ and TNF-α production
TNF-α production (human T cells): significantly reduced IFN-γ and TNF-α production
IFN-γ production [1]: significantly reducing IFN-γ and TNF-αproduction
TNF-α production [1]: significantly reducing IFN-γ and TNF-αproduction
development of FoxP3+ regulatory T cells [1]: enhances the development of FoxP3^+ regulatory T cells
